According to ChEMBL document CHEMBL1147560, “Thioxanthene-derived analogs as sigma(1) receptor ligands” (Bioorg Med Chem Lett, 2004):

Assays:
Sigma 2 receptor = experiment: Binding affinity of compound was measured towards Sigma receptor type 2 by using [3H]ditolylguanidine as radioligand; design: species or system Cavia porcellus
[1] = target: T1, Sigma non-opioid intracellular receptor 1 (Homo sapiens, UniProt Q99720); experiment: Selectivity for sigma 2 compared to sigma 1 receptor
[2] = target: T1, Sigma non-opioid intracellular receptor 1; experiment: Binding affinity for Sigma receptor type 1,using [3H](+)-pentazocine as radioligand
[3] = Binding affinity for Sigma receptor type 1,using [3H](+)-pentazocine as radioligand

T1 sequence (Q99720 whole entry): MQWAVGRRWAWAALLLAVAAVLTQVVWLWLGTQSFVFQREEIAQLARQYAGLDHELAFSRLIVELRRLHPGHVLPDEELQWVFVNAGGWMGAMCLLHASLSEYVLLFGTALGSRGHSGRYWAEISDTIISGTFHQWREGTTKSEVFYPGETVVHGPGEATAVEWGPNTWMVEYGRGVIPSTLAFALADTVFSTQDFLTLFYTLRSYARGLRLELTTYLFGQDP

Row | SMILES | Ki (Sigma 2 receptor) [nM] | Selectivity ([1]; Cavia porcellus) | Ki [2] [nM] | Selectivity [1] | Ki [3] [nM]
1 | CC1CCN(CCCCCc2ccccc2)CC1 |  |  | 0.07 |  | 
2 | CN1CCN(CCCCc2ccccc2)CC1 | 900 |  | 20 | 45 | 
3 | CCN(CC)CCCCC(c1ccccc1)c1ccccc1 | 51 |  | 1.4 | 36 | 
4 | CN1CCN(CC/C=C/c2ccccc2)CC1 | 1300 |  | 29 | 45 | 
5 | CN(CCCCCc1ccccc1)CCc1ccccc1 |  |  |  |  | 0.25
6 | CCN(CC)CCOC(=O)C(O)(c1ccccc1)c1ccccc1 [BENACTYZINE] |  |  | > 1000 |  | 
7 | CC1CCN(CCCCC(c2ccccc2)c2ccccc2)CC1 | 17 |  | 0.09 | 189 | 

Next, values leading:

Row | Ki (Sigma 2 receptor) [nM] | Selectivity ([1]; Cavia porcellus) | Ki [2] [nM] | Selectivity [1] | Ki [3] [nM] | SMILES
8 | 100 | 152 | 0.66 |  |  | c1ccc(CCNCCCCC(c2ccccc2)c2ccccc2)cc1
9 | 1100 |  |  |  |  | CCCC(C(=O)OCCN(CC)CC)(c1ccccc1)c1ccccc1 [PROADIFEN]
10 | 800 |  | 12 | 67 |  | CCN(CC)CCCCC(O)(c1ccccc1)c1ccccc1
11 | 26 |  | 0.8 | 33 |  | CC1CCN(CCC=C2c3ccccc3Sc3ccccc32)CC1
12 | 41 |  | 0.89 | 46 |  | CN(CCCC=C(c1ccccc1)c1ccccc1)CCc1ccccc1
13 | 25 |  |  |  |  | CC1CCN(CCCC=C(c2ccccc2)c2ccccc2)CC1
14 | 2540 |  | 29 | 88 |  | CN1CCN(CC/C=C\c2ccccc2)CC1
15 | 28 |  | 1.1 | 25 |  | CC1CCN(CCCC(c2ccccc2)c2ccccc2)CC1
16 | 142 |  |  |  |  | C(CCCNCCc1ccccc1)=C(c1ccccc1)c1ccccc1
17 | 28 |  | 1.9 | 15 |  | CC1CCN(CCC=C(c2ccccc2)c2ccccc2)CC1
18 | 32 |  | 0.48 | 67 |  | CN(CCCCC(c1ccccc1)c1ccccc1)CCc1ccccc1
